Values joined by “and” are separate entries in the source; they are usually repeats but may differ in a detail not shown here. Equal entries are not always repeated.
What was measured:
[1] = test system: Panc203; assay: MTT growth inhibition, pancreatic cell line Panc203; format: cell-based; conditions: Panc203; for IC50: Homo sapiens, MTT assay, 96 h treatment, average of three independent experiments
Description: (§1) Eight of these analogs 6d, 6h, 6n, 6g, 7b, 7d, 8g, and 8h were tested for their cytotoxicity in seven pancreatic cell lines ASPC1, Panc1, Panc203, Panc430, Pane 1005, MiaPaca2, and HS766T using MTT assay. Cells were trypsinized, seeded at 5×10^3 cells/well in 96-well plate and allowed to grow for 24 hours before the treatment with exponential increasing concentrations of drugs in the presence of 10% FBS. After a 96-hours period of treatment, 20 μl of MTT solution (5 mg/ml in PBS) were added to each well, and the plates were then incubated for 3 hours at 37° C. Medium was then replaced with 100 μl of DMSO per well. Plates were shaken and the optical density was measured at 570 nm using a multiwell plate reader (Bio-Rad, Model 550, Bio-Rad Inc., Hercules, Calif.). Each experiment was performed in triplicate for each drug concentration and was carried out independently at least 3 times. The IC50 value was defined as the concentration needed for a 50% reduction in the absorbance calculated based on the survival curves. Response to drug treatment was assessed by standardizing treatment groups to untreated controls. Compounds activity was compared with compound 1.
(§2) Table 2 (Growth Inhibition of Pancreatic Cancer Cell Lines by BPU and BPTU Analogues (IC50) a) compares the cytotoxicity of a series of new derivatives against a panel of seven pancreatic cancer cell lines, as determined by MTT assay. See, Mosmann, T., J. Immunol. Methods 65:55-63 (1983).

[2] = test system: HS766; assay: MTT growth inhibition, pancreatic cell line HS766; format: cell-based; conditions: Homo sapiens, Hs 766; MTT assay, 96 h treatment; average of three independent experiments
Description: as §1, §2

[3] = test system: prostate cancer cell lines CWR22R, LAPC-4 and LnCap; assay: MTT growth inhibition, prostate cancer cell line panel; format: cell-based, human; conditions: for potency relative to compound 1, prostate cell lines (preliminary screening): CWR22R, LAPC-4, LnCap
Description: This MTT assay was carried using human prostate cancer cell lines CWR22R, LAPC-4 and LnCap using Promega cell titer 96 nonradioactive cell proliferation kits. Cells were trypsinized and centrifuged at 1000 rpm for 5 minutes and the supernatant was aspirated. Cells were resuspended with HBSS to a concentration of 10^6/ml. Cell suspension was diluted in serum containing medium to plate 2000 cells/well/0.2 ml. Cell suspension was transferred to sterile solution basin. Cells were plated using multichannel pipette set at 200 μl and incubated overnight for attachment. One plate was prepared for day 0 MTT assay as follows: 100 μl of media was removed from each well using multichannel pipette and 15 μl of MTT reagent was added. Plates were incubated at 37° C. for 4 hrs. […] of STOP solution was added to each well and incubated at room temperature for 1 hour. Absorbance was measured at 570 and 650 nm on plate reader. All the media from the remaining plates were carefully removed and the cells were treated with the media containing drug. MTT assays were done on days 0, 3, 5 and 7. In the preliminary screening […] BPU sulfur analogs 6l, 6h, 6n, 7d and 8h were screened and their activity was compared with compound 1.

[4] = test system: pancreas cancer xenografts; assay: In vivo growth inhibition of patient-derived pancreas cancer xenografts; design: species or system athymic nude mice; conditions: for average growth after 28 days of treatment (T/C): individual patient xenograft cases; for efficacy in case 194: case with the greatest expression of MAPT; for slopes of treated versus control group, all nine cases: integrated analysis of nine treatment groups; for efficacy in case 215: low MAPT-expressing case, docetaxel 30 mg/kg i.p. once a week for 2 weeks
Description: Six-week-old female athymic nude mice (Harlan) were used. The research protocol was approved by the Johns Hopkins University Animal Care and Use Committee, and animals were maintained in accordance to guidelines of the American Association of Laboratory Animal Care. Surgical non-diagnostic specimens from patients who had undergone surgery at the Johns Hopkins Hospital were implanted s.c. in one to two mice for each patient, with two small pieces per mouse (F1 generation). Tumors were grown to 1.5 cm^3 and then harvested, divided into small ˜3×3×3 mm pieces, and transplanted to another five mice, with two tumors per mouse (F2 generation). After a second growth passage, tumors were excised and propagated to cohorts of ≧20 mice. These groups constituted the F3, or treatment cohort. Tumors from this third mouse-to-mouse passage were allowed to grow to ˜200 mm3, at which time mice were randomized into three treatment groups, with five to six mice (10 evaluable tumors) in each group: control (vehicle), 6n (50 mg/kg i.p. twice per week), and 7d (50 mg/kg i.p. twice per week). Docetaxel treatment was given to selected groups at a dose of 30 mg/kg i.p. once a week for 2 weeks. Mice were monitored daily for signs of toxicity and were weighed thrice per week. Tumor size was evaluated twice per week by caliper measurements using the following formula: tumor volume=[length×width^2]/2. Relative tumor growth inhibition was calculated by relative tumor growth of treated mice divided by relative tumor growth of control mice from the onset of therapy (T/C).
To assess the treatment effect, a hierarchical linear regression model was used with random intercepts and fixed slopes. Based on the results of exploratory plots, the assumption of fixed effects for slopes seemed reasonable. This model allowed for mouse effects to be nested within patient effects so that the hierarchical structure is fully accounted for. Specifically, the following linear regression model was fitted: log(γiJt)=a1ijtimeijt+b2jtimeijt×trtij+βtime^2ijt+eijt where j indexes patient, i indexes mouse, and t indexes time; yijt is the percentage change in tumor volume (compared with day 0) in mouse i, which is a xenograft for patient j at time t; and trtij is treatment (1=treated, 0=control) received by mouse i, which is a xenograft for patient j. […] An intercept and main effect of treatment were not included in the model that makes two assumptions: (a) at time 0, the change from baseline is 0 (which is empirically true), and (b) at baseline, the treated and untreated curves intersect. The model was fit using Win-Bugs software that estimates models using a Markov chain Monte Carlo estimation procedure. A burn-in of 10,000 iterations was done, and then the chain was run for an additional 20,000 iterations, of which every 10th iteration was saved for inference. Several chains were run with different starting values to ensure convergence. No convergence issues arose. The fitted model was used to make inferences with respect to the treatment effect and to create fitted regression lines (rescaled on the Y-axis for clearer interpretation). Point estimates of variables of interest (e.g., expected difference in tumor volume between treated and control at 28 days) and 95% credible intervals were based on the mean of posterior distributions and the 2.5th and 97.5th quantiles of the posterior distribution, respectively. The comparisons between means and proportions obtained from the biological studies were done using Student's t-test and χ^2 method, respectively. ANOVA was used when three or more variables were compared.
Tumors from nine cases of pancreatic cancer were used to establish xenografts in nude mice, and the animals were treated with either vehicle, 6n, or 7d (FIG. 36A). The level of efficacy varied both between drugs and within cases treated with each drug. FIG. 37 provides an integrated summary of all data points obtained in the studies. […]

**Q.** Which IC50 [1] does the source give for `O=C(NC(=O)c1ccccc1[N+](=O)[O-])Nc1ccc(Sc2ncc(Br)cn2)cc1` [Compound 6n, 1-[4-(5-Bromopyrimidin-2-ylsulfanyl)phenyl]-3-(2-nitrobenzoyl)-urea] here?
**A.** 700 nM

**Q.** What about the “increase in potency over 6m” value [1] of the same compound?
**A.** 14 fold

**Q.** What about the IC50 [2] of the same compound?
**A.** 88 nM

**Q.** What about the “potency relative to compound 1, prostate cell lines (preliminary screening)” value [3] of the same compound?
**A.** 20 times

**Q.** And the IC50 ([3]; Homo sapiens, all prostate cell lines, read-out: IC50 against all prostate cell lines)?
**A.** 50 nM

**Q.** And the “proportion of sensitive cases, above the median MAPT expression” value ([4]; 50 mg/kg i.p. twice per week)?
**A.** 0 of 4

**Q.** And the “proportion of sensitive cases, below the median MAPT expression” value ([4]; 50 mg/kg i.p. twice per week)?
**A.** 4 of 5

**Q.** And the “average growth after 28 days of treatment (T/C)” value ([4]; 50 mg/kg i.p. twice per week)?
**A.** ≤ 50% and 60%

**Q.** What about the “efficacy in case 194” value [4] of the same compound?
**A.** inactive

**Q.** What about the “efficacy compared with docetaxel” value ([4]; direct comparison in three cases) of the same compound?
**A.** at least as efficacious (if not better) than docetaxel

**Q.** And the “slopes of treated versus control group, all nine cases” value [4]?
**A.** no statistical differences

**Q.** And the “efficacy in case 215” value [4]?
**A.** particularly efficacious

**Q.** And the “efficacy compared with erlotinib” value ([4]; same patient-derived xenografts)?
**A.** superior to erlotinib

**Q.** `Nc1ccccc1C(=O)NC(=O)Nc1ccc(Sc2ncc(Br)cn2)cc1` [Compound 7d] was tested. Which IC50 [1] did it give?
**A.** 85 nM

**Q.** What about the “increase in activity compared to 7c” value [1] of the same compound?
**A.** > 117 fold

**Q.** What about the IC50 [2] of the same compound?
**A.** 700 nM

**Q.** What about the “potency relative to compound 1, prostate cell lines (preliminary screening)” value [3] of the same compound?
**A.** 20 times

**Q.** And the “average growth after 28 days of treatment (T/C)” value ([4]; 50 mg/kg i.p. twice per week)?
**A.** 43% and 59%

**Q.** And the “efficacy in case 194” value [4]?
**A.** inactive

**Q.** And the “slopes of treated versus control group, all nine cases” value [4]?
**A.** no statistical differences

**Q.** And the “efficacy in case 215” value [4]?
**A.** particularly efficacious

Source: patent US20090099218A1, “SYNTHESIS OF NOVEL TUBULIN POLYMERIZATION INHIBITORS: BENZOYLPHENYLUREA (BPU) SULFUR ANALOGS” (priority 2007, published 2009)
